The source of these data is US6160087A, “Peptides having an amino acid sequence from the fimbrial protein of porphyromonas gingivalis and their uses” (priority 1993, dated 2000).

For data set [1], the system named is anti-Porphyomonas gingivalis fimbria antibodies contained in sera of patients with periodontal disease. Kind of data set: Assay of the specific antibody in serum using plates coated with peptide-modified BSA (ELISA). The class given is binding, human. As to conditions: average absorbance (405 nm) of 3 specimens, serum diluted 100 times. As to the method: One mg of each peptide synthesized in Example 2 was dissolved in 1 ml of 0.1 M phosphate buffered saline (PBS, pH 6.0), 5 mg of sulfated SMCC (made by Pierce Co.) was added, and the mixture was incubated at 30° C. for 30 minutes to conduct maleimidization, and then subjected to Sephadex G-10 column chromatography, and the first eluate fraction was collected. 7 mg of bovine serum albumin (BSA: made by Wako Pure Chemical Industries, Ltd.) was dissolved in 1 ml of 0.1 M phosphate buffer (pH 6.0), 10 mM EDTA, the solution was mixed with the above maleimidized peptide, and the mixture was subjected to reaction at 30° C. for 1 hour. The resultant peptide-modified BSA was subjected to Sephadex G-50 column chromatography, and the first eluate fraction was collected as a plate-preparing antigen solution.
Then, six kind of peptides were synthesized after the process of Example 2, and a plate-preparing antigen solution was similarly prepared as a control.
Each of the resultant antigen solutions was diluted with 0.1 M carbonate buffer (pH 9.6), 150 mM NaCl to give 100 ml of a solution. 10 μl/well of the solution was put in a polystyrene-made microtiter plate (Immunoplate II; maxisorp type; made by Nunc Co.) and left alone at 4° C. overnight, and washing was conducted three times each with 200 μl/well of PBS, using a microtiter automatic washer (hereafter abbreviated as washer; made by Bio-Rad Laboratories). 250 μl/well of PBS containing 0.1% gelatin (made by Nitta Gelatin Co., Ltd.) was added and the mixture was allowed to stand at 4° C. overnight to block the plate. The blocking solution was removed by absorption, and the plate was dried by a vacuum dryer, put in an aluminum bag, and after sealing the bag, kept at 4° C. for the following assay.
Sera of patients of periodontal disease (n=3) and normal subjects (n=3) were used as samples, and each serum was diluted 100 times with PBS containing 10% bovine serum. 100 μl portions of these dilutions were added to the plates coated with various antigens, respectively, and incubation was conducted at 37° C. for 1 hour. Each plate was washed three times with 200 μl of PBST using the washer, 100 μl of a commercially available […] (diluted 10^3 times)/0.1% Casein/PBST was added as a secondary antibody, and incubation was conducted again at 37° C. for 1 hour. The plate was washed in the same manner as above, 100 μl of an o-phenylenediamine solution was added, incubation was conducted at 37° C. for 30 minutes, 100 μl of 0.1 N sulfuric acid was added to stop the reaction, and then, absorbance (405 nm) was measured by a microplate reader (made by Bio-Rad Laboratories) using the reaction well of no addition of the specimen as a control. The measures values are average absorbances of 3 specimens each of the patient group of periodontal disease and the normal subject group.
In general terms: ELISA stands for enzyme-linked immunosorbent assay.

The subject of data set [2] is Porphyomonas gingivalis. In kind it is in vivo, guinea pig. As to conditions: with FCA; for Degree of redness Longest length × shortest length: 500 μg/animal, inoculation on the 28th day, 24 hours later; for Inhibition rate: relative to the FIA inoculation group. As to the method:
Each peptide synthesized in Example 2 was administered together with FIA (Freund's incomplete adjuvant) or FCA (Freund's complete adjuvant), as a water-in-oil type emulsifier, into the sole of the right hind leg of a guinea pig in an amount of 500 μg/animal/time. Thereafter, on the 28th day, 200 μl of a suspension of 10^11 cells/ml of the bacterium was intracutaneously inoculated into the right flank of the same guinea pig after the hair at the region was shaved. 24 hours later, the longest length and shortest length of the resultant red coloring were measured, and the product of them was calculated. From the product was calculated the inhibition rate.

The nature of data set [3]: Immunization of mice with the peptides: body weight. Conditions: mice immunized with FCA emulsion, 3 animals per group. The class given is in vivo. As for the experimental part: (§1) Each peptide synthesized in Example 2 was dissolved in PBS so as to make the concentration 200 μg/ml, the solution was mixed with the same volume of FCA, and the mixture after emulsification was subcutaneously injected into mice at the back (3 animals per group). 4 weeks later, the antibody titer in the serum or saliva against the peptide was assayed by an ELISA method.

Data set [4] relates to fimbrial protein of Porphyomonas gingivalis. Put plainly: Immunization of mice with the peptides: antibody titer in serum or saliva by ELISA. In kind it is in vivo. As to conditions: A405 value by the ELISA method, with FCA, 4 weeks later. As for the experimental part:
as §1
The fimbrial protein of Porphyomonas gingivalis was adsorbed on each well of a 96-well microtiter plate for ELISA, and a dilution of the serum with PBS (1/10^5), a dilution of the saliva with PBS (1/500), or a solution obtained by adding each peptide or the fimbrial protein of Porphyomonas gingivalis is to the dilution of the serum or saliva to cause absorption was put in the well. Reaction was conducted at 37° C. for 1 hour, and then assay was conducted by a usual ELISA method.

Where no end group is shown, it is not given here.

Regarding “DANYLTGSLT [Comparative peptide, reference compound]”, in data set [1], the “Antibody titer, Normal subject group” value was 0.145 and the “Antibody titer, Patient group with peridontal disease” value (“Antibody titer, Patient group” below) came to 0.196.
“LCVYGKLQKN [Comparative peptide, reference compound]”: in data set [1], the “Antibody titer, Normal subject group” value was 0.213 and the “Antibody titer, Patient group” value was found to be 0.182.
“NHIENDPLKI [Comparative peptide, reference compound]”: in data set [1], the “Antibody titer, Normal subject group” value was found to be 0.201 and the “Antibody titer, Patient group” value turned out to be 0.205.
As to “Peptide 2: synthetic peptide, epitope of the 41 kD fimbrial subunit protein of Porphyomonas gingivalis; sequence in Table 1, not shown (EVKALTTELT)”, in data set [2], the “Degree of redness Longest length × shortest length” value (“Degree” below) is 1179 mm^2 and the Inhibition rate was found to be 39.5%. Besides, in data set [1], the “Antibody titer, Normal subject group” value was 0.205 and the “Antibody titer, Patient group” value is reported as 0.566. Further, the “Body weight (Average g)” value in data set [3] turned out to be 26 g. Also, in data set [4], the “Antibody titer Saliva (1/500) After absorption” value is listed as 0.17, the “Antibody titer Saliva (1/500) Before absorption” value was determined as 0.36, the “Antibody titer Serum (1/10^5) After absorption” value came out at 0.15 and the “Antibody titer Serum (1/10^5) Before absorption” value was 0.34.
As for “Peptide 3: synthetic peptide, epitope of the 41 kD fimbrial subunit protein of Porphyomonas gingivalis; sequence in Table 1, not shown (AENQEAAGLI)”, in data set [2], the “Degree” value is reported as 1155 mm^2 and the Inhibition rate was 40.7%. Moreover, in data set [1], the “Antibody titer, Normal subject group” value came out at 0.214 and the “Antibody titer, Patient group” value is recorded as 0.623. The “Body weight (Average g)” value in data set [3] was determined as 26 g. Further, in data set [4], the “Antibody titer Saliva (1/500) After absorption” value amounted to 0.09, the “Antibody titer Saliva (1/500) Before absorption” value was 0.37, the “Antibody titer Serum (1/10^5) After absorption” value amounted to 0.16 and the “Antibody titer Serum (1/10^5) Before absorption” value is on record as 0.38.
Take “Peptide 4: synthetic peptide, epitope of the 41 kD fimbrial subunit protein of Porphyomonas gingivalis; sequence in Table 1, not shown (AAGLIMTAEP)”: in data set [2], the “Degree” value worked out at 851 mm^2 and the Inhibition rate is 56.3%. Moreover, in data set [1], the “Antibody titer, Normal subject group” value is listed as 0.197 and the “Antibody titer, Patient group” value is recorded as 0.941. Further, in data set [3], the “Body weight (Average g)” value worked out at 27 g. In data set [4], the “Antibody titer Saliva (1/500) After absorption” value was 0.12, the “Antibody titer Saliva (1/500) Before absorption” value is 0.49, the “Antibody titer Serum (1/10^5) After absorption” value is on record as 0.13 and the “Antibody titer Serum (1/10^5) Before absorption” value turned out to be 0.52.
Regarding “Peptide 5: synthetic peptide, epitope of the 41 kD fimbrial subunit protein of Porphyomonas gingivalis; sequence in Table 1, not shown (TGSLTTFNGA)”, in data set [2], the “Degree” value is reported as 1063 mm^2 and the Inhibition rate came to 45.4%. In data set [1], the “Antibody titer, Normal subject group” value is recorded as 0.165 and the “Antibody titer, Patient group” value is on record as 0.760. In addition, in data set [3], the “Body weight (Average g)” value was 28 g. Besides, in data set [4], the “Antibody titer Saliva (1/500) After absorption” value was found to be 0.15, the “Antibody titer Saliva (1/500) Before absorption” value is 0.42, the “Antibody titer Serum (1/10^5) After absorption” value is reported as 0.11 and the “Antibody titer Serum (1/10^5) Before absorption” value is 0.45.
Consider “Peptide 6: synthetic peptide, epitope of the 41 kD fimbrial subunit protein of Porphyomonas gingivalis; sequence in Table 1, not shown (TFNGAYTPAN)”, for which, in data set [2], the “Degree” value is listed as 1112 mm^2 and the Inhibition rate came to 42.9%. Also, in data set [1], the “Antibody titer, Normal subject group” value is given as 0.141 and the “Antibody titer, Patient group” value was 0.675. In data set [3], the “Body weight (Average g)” value was found to be 26 g. For the same substance, in data set [4], the “Antibody titer Saliva (1/500) After absorption” value came to 0.11, the “Antibody titer Saliva (1/500) Before absorption” value stood at 0.39, the “Antibody titer Serum (1/10^5) After absorption” value is listed as 0.12 and the “Antibody titer Serum (1/10^5) Before absorption” value came to 0.41.
In the case of “Peptide 8: synthetic peptide, epitope of the 41 kD fimbrial subunit protein of Porphyomonas gingivalis; sequence in Table 1, not shown (ANGGTIHPTI)”, in data set [2], the “Degree” value came out at 1022 mm^2 and the Inhibition rate is 47.5%. Moreover, in data set [1], the “Antibody titer, Normal subject group” value was 0.182 and the “Antibody titer, Patient group” value is 0.935. In addition, the “Body weight (Average g)” value in data set [3] amounted to 25 g. For the same substance, in data set [4], the “Antibody titer Saliva (1/500) After absorption” value was 0.14, the “Antibody titer Saliva (1/500) Before absorption” value was 0.45, the “Antibody titer Serum (1/10^5) After absorption” value was found to be 0.11 and the “Antibody titer Serum (1/10^5) Before absorption” value came out at 0.49.
Take “Peptide 9: synthetic peptide, epitope of the 41 kD fimbrial subunit protein of Porphyomonas gingivalis; sequence in Table 1, not shown (EGKTYYPVLV)”: in data set [2], the “Degree” value is on record as 1265 mm^2 and the Inhibition rate amounted to 35.0%. In data set [1], the “Antibody titer, Normal subject group” value stood at 0.186 and the “Antibody titer, Patient group” value is given as 0.546. Further, the “Body weight (Average g)” value in data set [3] came out at 26 g. In data set [4], the “Antibody titer Saliva (1/500) After absorption” value is recorded as 0.13, the “Antibody titer Saliva (1/500) Before absorption” value was found to be 0.34, the “Antibody titer Serum (1/10^5) After absorption” value is listed as 0.13 and the “Antibody titer Serum (1/10^5) Before absorption” value turned out to be 0.32.
With “RTLVVMANTG [Comparative peptide, reference compound]”, in data set [1], the “Antibody titer, Normal subject group” value is on record as 0.161 and the “Antibody titer, Patient group” value worked out at 0.199.
“VMVYNGEQQE [Comparative peptide, reference compound]”: in data set [1], the “Antibody titer, Normal subject group” value is 0.172 and the “Antibody titer, Patient group” value is 0.165.
For “WLSRNYVAPA [Comparative peptide, reference compound]”, in that order: 0.204 and 0.210.
